Assay results from patent US7034056B2, “Aryl and biaryl compounds having MCH modulatory activity” (Pharmacopeia Drug Discovery, inc., priority 2001, dated 2006).
Read-outs that look alike come from different tables or passages of the source.

Biological target: T1, hMCHR (MCH receptor) (Homo sapiens, UniProt Q99705)
T1 construct: (or internally produced); host or cells: CHO (Chinese hamster ovary) cells, membrane preparation
Experiment: MCH Assay PCOP Protocol ([125I]-MCH SPA binding to hMCHR-CHO membranes);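 as to Activity (Ki range): A 0.4–50 nM B 51–500 nM C 501–2500 nM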
Outline: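 SPA binding with 10 μg hMCHR-CHO membranes and WGA-SPA beads in 25 mM HEPES pH 7.4, 10 mM NaCl, 10 mM MgCl2, 5 mM MnCl2, 0.1% BSA.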

[1] = [125I]-MCH 0.5 nM, hMCHR-CHO membranes, read-out: Activity (ranges of Ki values)
[2] = [125I]-MCH binding to hMCHR-CHO membranes, class symbols for ranges of Ki, read-out: Activity (Ki range)
[3] = [125I]-MCH SPA binding, hMCHR-CHO membranes, Ki class ranges, read-out: Activity (range of Ki)

T1 sequence (Q99705 whole entry): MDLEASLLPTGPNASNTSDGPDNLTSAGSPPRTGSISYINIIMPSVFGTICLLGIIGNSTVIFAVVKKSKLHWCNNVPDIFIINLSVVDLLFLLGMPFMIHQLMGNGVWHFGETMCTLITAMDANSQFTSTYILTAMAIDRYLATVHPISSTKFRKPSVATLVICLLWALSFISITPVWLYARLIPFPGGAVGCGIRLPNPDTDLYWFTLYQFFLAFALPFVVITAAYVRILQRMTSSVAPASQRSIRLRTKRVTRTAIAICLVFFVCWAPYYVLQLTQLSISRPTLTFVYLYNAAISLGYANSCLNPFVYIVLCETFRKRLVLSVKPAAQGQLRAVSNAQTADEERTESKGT

Row | Ki [1] | Ki [2] | Structure (SMILES) | also measured
1 | 501 to 2500 nM |  | O=C(NCC(CCN1CCC(NC(=O)c2cccs2)CC1)c1ccc(Cl)c(Cl)c1)Nc1cc(Cl)cc(Cl)c1 (stereo not drawn) [Example 212] | 
2 |  | 501 to 2500 nM | CN1CCCC1CCNCCC(CNC(=O)Nc1cc(Cl)cc(Cl)c1)c1ccc(Cl)c(Cl)c1 (stereo not drawn) [Example 301] | 
3 |  | 51 to 500 nM | O=C(NCC(CCNCCc1ccc(O)cc1)c1ccc(Cl)c(Cl)c1)Nc1ccc(Cl)c(Cl)c1 (stereo not drawn) [Example 278] | 
4 | 501 to 2500 nM |  | CN(C)CCCNCCC(CNC(=O)Nc1cc(Cl)cc(Cl)c1)c1cccc(-c2ccccc2)c1 (stereo not drawn) [Example 171] | 
5 | 51 to 500 nM |  | COc1ccc(-c2cccc(C(CCNCCCN(C)C)CNC(=O)Nc3cc(Cl)cc(Cl)c3)c2)cc1 (stereo not drawn) [Example 154] | 
6 |  | 501 to 2500 nM | NC1CCN(CCC(CNC(=O)Nc2cc(Cl)cc(Cl)c2)c2ccc(Cl)c(Cl)c2)CC1 (stereo not drawn) [Example 322] | 
7 | 51 to 500 nM |  | CCOC(=O)N1CCC(NCCC(CNC(=O)Nc2cc(Cl)cc(Cl)c2)c2ccc(C)cc2)CC1 (stereo not drawn) [Example 123] | 
8 |  | 0.4 to 50 nM | O=C(NCC(CCNC1CCCC1)c1ccc(Cl)c(Cl)c1)Nc1cc(C(F)(F)F)cc(C(F)(F)F)c1 (stereo not drawn) [Example 328] | 
9 |  | 501 to 2500 nM | CN1CCCC1CCNCCC(CNC(=O)c1cc(C(F)(F)F)cc(C(F)(F)F)c1)c1ccc(Cl)c(Cl)c1 (stereo not drawn) [Example 413] | 
10 | 501 to 2500 nM |  | COc1cscc1C(=O)NC1CCN(CCC(CNC(=O)Nc2cc(Cl)cc(Cl)c2)c2ccc(Cl)cc2)CC1 (stereo not drawn) [Example 201] | 
11 | 51 to 500 nM |  | O=C(NCC(CCNC1CCCC1)c1ccc(Cl)c(Cl)c1)Nc1cccc(Cl)c1 (stereo not drawn) [Example 130] | 
12 |  | 0.4 to 50 nM | CN(C)CCCNCCC(CNC(=O)Nc1cc(Cl)cc(Cl)c1)c1ccc(-c2ccc3c(c2)OCO3)cc1 (stereo not drawn) [Example 223] | 
13 | 51 to 500 nM |  | CN(C)CCCNCCC(CNC(=O)Nc1cc(Cl)cc(Cl)c1)c1ccc(-c2cc(F)cc(F)c2)cc1 (stereo not drawn) [Example 99] | 
14 | 501 to 2500 nM |  | COc1ccccc1-c1cccc(C(CCNC2CCCC2)CNC(=O)Nc2cc(Cl)cc(Cl)c2)c1 (stereo not drawn) [Example 164] | 
15 |  | 501 to 2500 nM | Cn1cnc(CCNCCC(CNC(=O)Nc2cccc(C(F)(F)F)c2)c2ccc(Cl)c(Cl)c2)c1 (stereo not drawn) [Example 303] | 
16 | 51 to 500 nM |  | O=C(NCC(CCNC1CCCC1)c1cccc(-c2ccc(Cl)cc2)c1)Nc1cc(Cl)cc(Cl)c1 (stereo not drawn) [Example 152] | 
17 |  | 51 to 500 nM | CN(C)C1CCN(CCC(CNC(=O)Nc2cc(Cl)cc(Cl)c2)c2ccc(Cl)c(Cl)c2)C1 (stereo not drawn) [Example 292] | 

Continued, molecule first:

Row | Structure (SMILES) | Ki [1] | Ki [2] | also measured
18 | O=C(NCC(CCN1CCCC1)c1ccc(Cl)c(Cl)c1)c1cc(C(F)(F)F)cc(C(F)(F)F)c1 (stereo not drawn) [Example 406] |  | 501 to 2500 nM | 
19 | CN(C)CCCNCCC(CNC(=O)Nc1cc(Cl)cc(Cl)c1)c1cccc(-c2ccc3c(c2)OCO3)c1 (stereo not drawn) [Example 163] | 501 to 2500 nM |  | 
20 | N#Cc1cccc(-c2ccc(C(CCNC3CCCC3)CNC(=O)c3cccc(F)c3)cc2)c1 (stereo not drawn) [Example 84] | 51 to 500 nM |  | 
21 | COc1cc(CNCCC(CNC(=O)Nc2ccc(F)c(Cl)c2)c2ccc(Cl)c(Cl)c2)cc(OC)c1OC (stereo not drawn) [Example 126] | 51 to 500 nM |  | 
22 | O=C(NCC(CCN1CCCC1)c1cccc(F)c1)Nc1cc(C(F)(F)F)cc(C(F)(F)F)c1 (stereo not drawn) [Example 341] |  | 501 to 2500 nM | 
23 | O=C(NCC(CCN1CCC(CNC2(CO)CCCC2)CC1)c1ccc(Cl)c(Cl)c1)c1cc(C(F)(F)F)cc(C(F)(F)F)c1 (stereo not drawn) [Example 416] |  | 501 to 2500 nM | 
24 | O=C(NCC(CCNC1CCCC1)c1ccc(-c2c(F)cccc2F)cc1)Nc1cc(Cl)cc(Cl)c1 (stereo not drawn) [Example 100] | 51 to 500 nM |  | 
25 | Cc1ccc(C(CCN2CCCCC2)CNC(=O)Nc2cc(C(F)(F)F)cc(C(F)(F)F)c2)cc1 (stereo not drawn) [Example 445] |  |  | Ki [3]: 501 to 2500 nM
26 | O=S(=O)(NCC(CCNCCc1c[nH]c2ccccc12)c1cccc(Cl)c1)c1ccc(Cl)c(Cl)c1 (stereo not drawn) [Example 340] |  | 501 to 2500 nM | 
27 | CN(C)CCCNCCC(CNC(=O)Nc1ccc(Cl)c([N+](=O)[O-])c1)c1ccc2c(c1)OCO2 (stereo not drawn) [Example 120] | 501 to 2500 nM |  | 
28 | CNCCC(CNC(=O)Nc1cccc(Cl)c1)c1ccc(-c2cccc(C#N)c2)cc1 (stereo not drawn) [Example 45] | 0.4 to 50 nM |  | 
29 | CCCN(CC)CCC(CNC(=O)Nc1cc(C(F)(F)F)cc(C(F)(F)F)c1)c1ccc(Cl)c(Cl)c1 (stereo not drawn) [Example 424] |  |  | Ki [3]: 501 to 2500 nM
30 | O=C(NCc1cc(C(F)(F)F)cc(C(F)(F)F)c1)C(CCNC1CCC1)c1ccc(Cl)c(Cl)c1 (stereo not drawn) [Example 379] |  | 501 to 2500 nM | 
31 | O=C(NCC(CCN1CCCC1)c1ccc(Cl)c(Cl)c1)Nc1cccc(C(F)(F)F)c1 (stereo not drawn) [Example 299] |  | 501 to 2500 nM | 
32 | O=C(NCC(CCNC1CCCC1)c1cccc(-c2cccc([N+](=O)[O-])c2)c1)Nc1cc(Cl)cc(Cl)c1 (stereo not drawn) [Example 148] | 51 to 500 nM |  | 
33 | O=C(NCC(CCNCCc1c[nH]c2ccccc12)c1ccc(Cl)c(Cl)c1)Nc1cc(C(F)(F)F)cc(C(F)(F)F)c1 (stereo not drawn) [Example 320] |  | 501 to 2500 nM | 
34 | O=C(NCC(CCN1CCC(N2CCCCC2)CC1)c1ccc(Cl)c(Cl)c1)Nc1ccc([N+](=O)[O-])c(Cl)c1 (stereo not drawn) [Example 286] |  | 51 to 500 nM | 
35 | CCCOC(=O)N1CCN(CCC(CNC(=O)Nc2cc(C(F)(F)F)cc(C(F)(F)F)c2)c2ccc(Cl)c(Cl)c2)CC1 (stereo not drawn) [Example 146] | 51 to 500 nM |  | 
36 | COc1ccc(C(CCNCCc2c[nH]c3ccccc23)CNC(=O)Nc2cc(C(F)(F)F)cc(C(F)(F)F)c2)cc1 (stereo not drawn) [Example 331] |  | 51 to 500 nM | 
